Laboratory results taken from patent US20090016990A1, “Antimicrobial Compositions” (priority 2007, published 2009).

What was measured:
P aeruginosa 10145 [1] = test: Synergy of Zosteric Acid (ZA) with HOCL, MIC in M9GY; format: cell-based
P aeruginosa 10145 [2] = test: Synergy of Zosteric Acid (ZA) with Kathon, MIC in M9GY; format: cell-based; details: ZA alone
[3] = ZA alone, M9GY, highest value tested, used for SI calculations

Structure (SMILES): O=C(O)/C=C/c1ccc(OS(=O)(=O)O)cc1 [ZA, Zosteric Acid]
- MIC at 24 hours, QZA (P aeruginosa 10145 [1]; [3]): 10,000 ppm
- MIC at 48 hours, QZA (P aeruginosa 10145 [1]; [3]): 10,000 ppm
- MIC for ZA (P aeruginosa 10145 [1]; table note, 10,000 ppm was the highest value tested): MIC for ZA is greater than 10,000 ppm, but since it was the highest value tested it was used for SI calculations.
- QZA, MIC at 24 hours (ppm) (P aeruginosa 10145 [2]; 24 hours): 10,000 ppm
- QZA, MIC at 48 hours (ppm) (P aeruginosa 10145 [2]; 48 hours): 10,000 ppm
